Patent US10047115B2, “Cyclic dinucleotides useful for the treatment of inter alia cancer” (priority 2015, dated 2018)

System: Female Balb/C mice
Assay: Adjuvant activity in mice, HBsAg model, serum ELISA antibody titers
Settings: for HBsAg-specific serum IgG: HBsAg administered IM with adjuvant; for Anti-HBsAg titers compared with the nonadjuvanted benchmark: mice vaccinated IM
Method: This objective of this study was to evaluate the potential of STING agonists of the present invention to function as adjuvants in mice using the HBsAg model.
Female Balb/C Mice were Vaccinated IM
Vaccines were delivered intramuscularly two times at 21 day intervals, and sera were evaluated for systemic antibody responses. Spleens (3 mice/group) were collected for Luminex/ICS analysis.
Sera were harvested 14dp1 and 14dp2 vaccination. Serum was evaluated by ELISA for anti-HBsAg IgG, IgG1, and IgG2a titers.

SMILES | HBsAg-specific serum IgG | HBsAg-specific IgG levels, dose response (four doses, IM) | Anti-HBsAg titers compared with the nonadjuvanted benchmark | antibody titers compared with cGAMP (relative to dose)
Nc1nc2c(ncn2[C@@H]2O[C@@H]3COP(=O)(O)O[C@H]4[C@@H](F)[C@H](n5cnc6c(N)ncnc65)O[C@@H]4COP(=O)(O)O[C@@H]2[C@@H]3O)c(=O)[nH]1 [Example 1, (1R,6R,8R,9R,10R,15R,17R,18R)-17-(2-Amino-6-oxo-6,9-dihydro-1H-purin-9-yl)-8-(6-amino-9H-purin-9-yl)-9-fluoro-3,12,18-trihydroxy-2,4,7,11,13,16-hexaoxa-3λ^5,12λ^5-diphosphatricyclo[13.2.1.0^6,10]octadecane-3,12-dione] | high levels | dose responsive | significantly higher | no significant differences
Nc1nc2c(ncn2[C@@H]2O[C@@H]3COP(=O)(O)O[C@H]4[C@@H](O)[C@H](n5cnc6c(N)ncnc65)O[C@@H]4COP(=O)(O)O[C@@H]2[C@@H]3O)c(=O)[nH]1 [cGAMP, reference compound] | high levels | – | significantly higher | –
